The results in this text go back to patent US10717733B2, “Haloallylamine indole and azaindole derivative inhibitors of lysyl oxidases and uses thereof” (PHARMAXIS LTD., priority 2016, dated 2020).

The test system of test [1] is primary fibroblasts from confirmed cases of IPF. Put plainly: Collagen cross-link formation in in vitro fibroblastic foci model of IPF. It counts as cell-based, human. Conditions: TGF-β1 stimulated foci, six weeks culture, FIGS. 7a and 7b. From the text: The lung tissue of patients with idiopathic pulmonary fibrosis (IPF) is characterised by dense collections of myofibroblasts and extracellular matrix (ECM) termed ‘fibroblastic foci’. Using a novel in vitro model of fibroblastic foci (Jones et al., AJRCCM 191; 2015:A4912) the formation of lysyl oxidase (LOX) mediated collagen cross-links and the effects of the nonselective LOX inhibitor β-aminopropionitrile (BAPN) as well lysyl oxidase like-2 (LOXL2)-selective inhibitors were investigated.
Cultures of primary fibroblasts were grown out from clinical diagnostic biopsies of fibrotic lung and stored in liquid nitrogen. […]
To quantify collagen cross-links (Robins Biochem Soc Trans 2007; 35(5): 849-852; Saito et al Anal. Biochem. 1997; 253: 26-32; Sims, Avery & Bailey Methods in Molecular Biology 2000; vol 139: 11-26), cultures were treated with potassium borohydride to stabilise the reducible immature cross-links, and hydrolysed in 6N HCl at 100° C. for 16 hr. Total collagen content was assessed by hydroxyproline assay. Immature cross-links were assessed by LC/MS/MS and mature pyridinoline cross-links by ELISA. Cross-link data is expressed as moles of cross-link per mole collagen.

Another test has as its target Bovine LOX (Bos taurus (Bovine), UniProt P33072). Put plainly: LOX inhibition, peroxidase-coupled Amplex Red amine oxidase assay. Conditions: 30 min preincubation at 37° C., putrescine substrate. It counts as biochemical. The procedure, abridged: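 Bovine LOX in 1.2 M urea, 50 mM sodium borate pH 8.2 with 1 μM mofegiline and 0.5 mM pargyline; putrescine at twice KM (e.g. 20 mM for LOX) with Amplex Red/HRP. Fluorescence (ex 565/em 590 nm) read kinetically over 30 min at 37–45 °C; IC50 from slopes.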

The target of the next test is Human LOXL2 (Homo sapiens (Human), UniProt Q9Y4K0). Put plainly: LOXL2 inhibition, peroxidase-coupled Amplex Red amine oxidase assay. It counts as biochemical. Conditions: 30 min preincubation at 37° C., putrescine substrate. The procedure, abridged:
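Enzyme in 1.2 M urea, 50 mM sodium borate pH 8.2 with 1 μM mofegiline and 0.5 mM pargyline, preincubated 30 min at 37° C with compound (11-point CRC). Putrescine at twice KM (10 mM for LOXL2) with Amplex Red/HRP; fluorescence (ex 565, em 590) read kinetically 30 min; IC50 from slopes.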

Test [2] has as its target human recombinant SSAO/VAP-1 (Homo sapiens (Human), UniProt Q16853). Put plainly: Inhibition of human recombinant SSAO/VAP-1 amine oxidase activity. It counts as biochemical. Conditions: 30 min preincubation at 37° C., 600 μM benzylamine. The gist of the method: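 Purified SSAO/VAP-1 (residues 34-763, expressed in CHO Lec 8 cells; 0.25 μg/mL) preincubated 30 min at 37° C with compound in 0.1 M sodium phosphate pH 7.4. Reaction mix of 600 μM benzylamine, 120 μM Amplex Red and 1.5 U/mL HRP added; fluorescence (ex 565/em 590 nm) read every 2.5 min for 30 min; IC50 from kinetic slopes over 4-11 point curves.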

Another test has as its target Recombinant human MAO-B (Homo sapiens (Human), UniProt P27338). Put plainly: Inhibition of human recombinant MAO-B. It counts as biochemical. Conditions: benzylamine 100 μM. The gist of the method:
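Recombinant human MAO-B used as enzyme source (0.06 mg/mL, stated concentration). Run as for the human SSAO/VAP-1 assay, except benzylamine substrate at 100 μM.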

pIC50: −log10 of the molar value. Structures can show the parent of a compound that is named as a salt. Some results are limits rather than exact numbers.

Recombinant human MAO-B, sequence (P27338 whole entry): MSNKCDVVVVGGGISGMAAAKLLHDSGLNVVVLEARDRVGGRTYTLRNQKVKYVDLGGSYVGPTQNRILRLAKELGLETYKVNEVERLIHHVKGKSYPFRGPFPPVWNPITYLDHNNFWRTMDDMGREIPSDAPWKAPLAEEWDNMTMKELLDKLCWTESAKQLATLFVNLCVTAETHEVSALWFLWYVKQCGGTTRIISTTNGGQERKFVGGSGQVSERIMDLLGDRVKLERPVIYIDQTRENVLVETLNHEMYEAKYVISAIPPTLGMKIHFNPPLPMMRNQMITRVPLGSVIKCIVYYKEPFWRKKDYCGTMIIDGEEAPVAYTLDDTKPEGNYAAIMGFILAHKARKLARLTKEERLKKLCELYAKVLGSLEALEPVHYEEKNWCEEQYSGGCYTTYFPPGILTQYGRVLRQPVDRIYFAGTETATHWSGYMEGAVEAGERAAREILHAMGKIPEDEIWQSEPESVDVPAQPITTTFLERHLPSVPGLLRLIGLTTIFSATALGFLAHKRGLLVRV
Human LOXL2, sequence (Q9Y4K0 26-774): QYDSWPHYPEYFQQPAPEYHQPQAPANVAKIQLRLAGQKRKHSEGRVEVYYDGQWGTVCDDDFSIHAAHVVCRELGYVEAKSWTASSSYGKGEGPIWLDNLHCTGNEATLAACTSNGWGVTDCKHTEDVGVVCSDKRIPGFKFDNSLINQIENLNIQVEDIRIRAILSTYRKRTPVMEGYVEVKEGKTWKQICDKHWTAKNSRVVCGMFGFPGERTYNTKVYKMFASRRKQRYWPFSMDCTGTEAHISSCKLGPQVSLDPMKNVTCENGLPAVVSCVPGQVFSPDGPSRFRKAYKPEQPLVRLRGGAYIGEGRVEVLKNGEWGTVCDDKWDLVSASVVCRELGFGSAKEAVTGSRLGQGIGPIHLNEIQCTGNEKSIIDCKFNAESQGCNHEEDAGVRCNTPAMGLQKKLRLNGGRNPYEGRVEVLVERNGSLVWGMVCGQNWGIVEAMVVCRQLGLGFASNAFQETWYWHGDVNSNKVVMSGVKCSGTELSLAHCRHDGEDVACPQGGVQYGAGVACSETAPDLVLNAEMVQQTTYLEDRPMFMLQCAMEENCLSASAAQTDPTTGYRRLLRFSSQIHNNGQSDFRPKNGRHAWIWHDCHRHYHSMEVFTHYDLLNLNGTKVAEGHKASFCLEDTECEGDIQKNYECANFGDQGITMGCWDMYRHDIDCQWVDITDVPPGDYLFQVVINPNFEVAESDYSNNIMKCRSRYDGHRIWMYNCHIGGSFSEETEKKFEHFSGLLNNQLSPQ
human recombinant SSAO/VAP-1, sequence (Q16853 34-763): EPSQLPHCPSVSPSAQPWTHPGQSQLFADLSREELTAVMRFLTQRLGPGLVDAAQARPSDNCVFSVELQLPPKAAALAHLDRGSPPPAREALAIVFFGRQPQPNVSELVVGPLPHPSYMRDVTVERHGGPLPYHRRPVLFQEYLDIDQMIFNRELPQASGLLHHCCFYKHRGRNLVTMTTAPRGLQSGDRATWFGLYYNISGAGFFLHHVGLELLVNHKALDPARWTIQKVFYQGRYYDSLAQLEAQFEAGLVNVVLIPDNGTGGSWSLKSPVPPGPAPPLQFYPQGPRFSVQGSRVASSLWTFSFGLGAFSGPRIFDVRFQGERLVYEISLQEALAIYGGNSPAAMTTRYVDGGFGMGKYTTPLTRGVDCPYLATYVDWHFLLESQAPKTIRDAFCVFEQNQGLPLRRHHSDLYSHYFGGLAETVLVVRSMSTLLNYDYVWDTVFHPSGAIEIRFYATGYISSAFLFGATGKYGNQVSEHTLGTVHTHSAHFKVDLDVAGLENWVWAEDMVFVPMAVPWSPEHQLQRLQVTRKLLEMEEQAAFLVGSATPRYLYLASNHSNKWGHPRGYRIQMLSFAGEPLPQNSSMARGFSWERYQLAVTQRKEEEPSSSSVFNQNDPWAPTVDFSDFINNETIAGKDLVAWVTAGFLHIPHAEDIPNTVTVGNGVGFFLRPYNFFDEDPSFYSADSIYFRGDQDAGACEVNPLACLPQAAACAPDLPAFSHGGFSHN
Bovine LOX, sequence (P33072 170-418): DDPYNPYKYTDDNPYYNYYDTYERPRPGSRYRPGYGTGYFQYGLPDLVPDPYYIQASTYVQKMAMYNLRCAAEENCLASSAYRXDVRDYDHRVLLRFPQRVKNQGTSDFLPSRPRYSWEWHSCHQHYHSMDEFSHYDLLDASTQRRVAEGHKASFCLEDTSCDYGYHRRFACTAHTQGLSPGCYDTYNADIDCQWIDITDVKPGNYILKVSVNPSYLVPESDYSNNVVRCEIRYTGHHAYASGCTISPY

For `N#CCCN` [BAPN, β-aminopropionitrile, reference compound], the “collagen cross-link formation (immature and mature cross-links)” value in test [1] is listed as “reduced cross-link formation in a concentration dependent manner”. For the same compound, the pIC50 is less than 6.00 against Bovine LOX, more than 6.00 on Human LOXL2, less than 5.52 in test [2] and less than 5.52 at Recombinant human MAO-B.
For the compound `CN(C)S(=O)(=O)c1cncc(-c2c(Cl)n(C/C(F)=C/CN)c3ccccc23)c1` [Compound 96, (Z)-5-(1-(4-amino-2-fluorobut-2-en-1-yl)-2-chloro-1H-indol-3-yl)-N,N-dimethylpyridine-3-sulfonamide], the pIC50 at Bovine LOX was less than 6.52; against Human LOXL2 it was more than 6.52; in test [2] it was less than 5.52; at Recombinant human MAO-B, less than 5.52.
Regarding `Cc1c(-c2cccc(S(=O)(=O)N(C)C)c2)c2cc(S(C)(=O)=O)ccc2n1C/C(F)=C/CN` [Compound 97, (Z)-3-(1-(4-amino-2-fluorobut-2-en-1-yl)-2-methyl-5-(methylsulfonyl)-1H-indol-3-yl)-N,N-dimethylbenzenesulfonamide], the pIC50 against Bovine LOX was less than 6.52; on Human LOXL2 it was more than 6.52; in test [2], less than 5.52; at Recombinant human MAO-B it was less than 5.52.
Turning to `COc1cc(-c2c(C)n(C/C(F)=C/CN)c3ccc(S(C)(=O)=O)cc23)ccn1` [Compound 98, (Z)-3-fluoro-4-(3-(2-methoxypyridin-4-yl)-2-methyl-5-(methylsulfonyl)-1H-indol-1-yl)but-2-en-1-amine], the pIC50 on Bovine LOX was less than 6.52; against Human LOXL2, more than 6.52; in test [2] it was less than 5.52; on Recombinant human MAO-B, less than 5.52.
Regarding `CN(C)S(=O)(=O)c1cccc(-c2c(Cl)n(C/C(F)=C/CN)c3cccnc23)c1` [Compound 99, (Z)-3-(1-(4-amino-2-fluorobut-2-en-1-yl)-2-chloro-1H-pyrrolo[3,2-b]pyridin-3-yl)-N,N-dimethylbenzenesulfonamide], the pIC50 is less than 6.52 on Bovine LOX, more than 6.52 against Human LOXL2, less than 5.52 in test [2] and less than 5.52 at Recombinant human MAO-B.
`CN(C)S(=O)(=O)c1cccc(-c2c(Cl)n(C/C(F)=C/CN)c3ccc(S(C)(=O)=O)cc23)c1` [Compound 100, (Z)-3-(1-(4-amino-2-fluorobut-2-en-1-yl)-2-chloro-5-(methylsulfonyl)-1H-indol-3-yl)-N,N-dimethylbenzenesulfonamide]: the pIC50 on Bovine LOX was less than 6.52; on Human LOXL2, more than 6.52; in test [2] it was less than 5.52; at Recombinant human MAO-B, less than 5.52.
As for `Cc1cc(-c2c(C)n(C/C(F)=C/CN)c3ccc([N+](=O)[O-])cc23)cc(C)n1` [Compound 101, (Z)-4-(3-(2,6-dimethylpyridin-4-yl)-2-methyl-5-nitro-1H-indol-1-yl)-3-fluorobut-2-en-1-amine], the pIC50 against Bovine LOX is less than 6.52; against Human LOXL2 it was more than 6.52; in test [2], less than 5.52; on Recombinant human MAO-B it was less than 5.52.
For `Cc1cc(-c2c(C)n(C/C(F)=C/CN)c3ccc(NS(C)(=O)=O)cc23)cc(C)n1` [Compound 102, (Z)—N-(1-(4-amino-2-fluorobut-2-en-1-yl)-3-(2,6-dimethylpyridin-4-yl)-2-methyl-1H-indol-5-yl)methanesulfonamide Dihydrochloride], the pIC50 on Bovine LOX was less than 6.52; at Human LOXL2 it was more than 6.52; in test [2] it was less than 5.52; at Recombinant human MAO-B, less than 5.52.
As for `COCc1ccc2c(n1)c(-c1cccc(S(=O)(=O)N(C)C)c1)c(C)n2C/C(F)=C/CN` [Compound 103, (Z)-3-(1-(4-amino-2-fluorobut-2-en-1-yl)-5-(methoxymethyl)-2-methyl-1H-pyrrolo[3,2-b]pyridin-3-yl)-N,N-dimethylbenzenesulfonamide], the pIC50 was less than 6.52 on Bovine LOX, more than 6.52 against Human LOXL2, less than 5.52 in test [2] and less than 5.52 on Recombinant human MAO-B.
Consider `Cc1c(-c2cccc(S(=O)(=O)N(C)C)c2)c2cc(NS(C)(=O)=O)ccc2n1C/C(F)=C/CN` [Compound 104, (Z)-3-(1-(4-amino-2-fluorobut-2-en-1-yl)-2-methyl-5-(methylsulfonamido)-1H-indol-3-yl)-N,N-dimethylbenzenesulfonamide Hydrochloride], for which the pIC50 against Bovine LOX is less than 6.52; against Human LOXL2, more than 6.52; in test [2], less than 5.52; at Recombinant human MAO-B, less than 5.52.
On to `Cc1c(-c2cccc(S(=O)(=O)N(C)C)c2)c2nc(N(C)C)ccc2n1C/C(F)=C/CN` [Compound 105, (Z)-3-(1-(4-amino-2-fluorobut-2-en-1-yl)-5-(dimethylamino)-2-methyl-1H-pyrrolo[3,2-b]pyridin-3-yl)-N,N-dimethylbenzenesulfonamide Dihydrochloride], for which the pIC50 was less than 6.52 on Bovine LOX, more than 6.52 at Human LOXL2, less than 5.52 in test [2] and less than 5.52 on Recombinant human MAO-B.
Consider `Cc1c(-c2cccc(S(=O)(=O)N(C)C)c2)c2cc(S(=O)(=O)C(C)C)ccc2n1C/C(F)=C/CN` [Compound 106, (Z)-3-(1-(4-amino-2-fluorobut-2-en-1-yl)-5-(isopropylsulfonyl)-2-methyl-1H-indol-3-yl)-N,N-dimethyl-benzenesulfonamide Hydrochloride], for which the pIC50 against Bovine LOX was less than 6.52; against Human LOXL2, more than 6.52; in test [2], less than 5.52; on Recombinant human MAO-B it was less than 5.52.
With `Cc1ccc2c(n1)c(-c1cccc(S(=O)(=O)N(C)C)c1)c(C)n2C/C(F)=C/CN` [Compound 107, (Z)-3-(1-(4-amino-2-fluorobut-2-en-1-yl)-2,5-dimethyl-1H-pyrrolo[3,2-b]pyridin-3-yl)-N,N-dimethylbenzenesulfonamide Dihydrochloride], the pIC50 on Bovine LOX was less than 6.52; against Human LOXL2, more than 6.52; in test [2], less than 5.52; at Recombinant human MAO-B, less than 5.52.
Consider `Cc1c(-c2cccc(S(=O)(=O)N(C)C)c2)c2ncc(F)cc2n1C/C(F)=C/CN` [Compound 108, (Z)-3-(1-(4-amino-2-fluorobut-2-en-1-yl)-6-fluoro-2-methyl-1H-pyrrolo[3,2-b]pyridin-3-yl)-N,N-dimethylbenzenesulfonamide], for which the pIC50 was less than 6.52 against Bovine LOX, more than 6.52 against Human LOXL2, less than 5.52 in test [2] and less than 5.52 on Recombinant human MAO-B.
With `Cc1c(-c2cccc(S(=O)(=O)N(C)C)c2)c2nc(F)ccc2n1C/C(F)=C/CN` [Compound 109, (Z)-3-(1-(4-amino-2-fluorobut-2-en-1-yl)-5-fluoro-2-methyl-1H-pyrrolo[3,2-b]pyridin-3-yl)-N,N-dimethylbenzenesulfonamide], the pIC50 against Bovine LOX was less than 6.52; on Human LOXL2, more than 6.52; in test [2], less than 5.52; at Recombinant human MAO-B, less than 5.52.
Regarding `Cc1c(-c2cccc(S(=O)(=O)N(C)C)c2)c2nc(C(F)(F)F)ccc2n1C/C(F)=C/CN` [Compound 110, (Z)-3-(1-(4-amino-2-fluorobut-2-en-1-yl)-2-methyl-5-(trifluoromethyl)-1H-pyrrolo[3,2-b]pyridin-3-yl)-N,N-dimethylbenzenesulfonamide], the negative logarithm of the IC50 (pIC50) is less than 6.52 against Bovine LOX, more than 6.52 against Human LOXL2, less than 5.52 in test [2] and less than 5.52 on Recombinant human MAO-B.
On to `Cc1c(-c2cccc(S(=O)(=O)N(C)C)c2)c2nc(C(C)(F)F)ccc2n1C/C(F)=C/CN` [Compound 111, (Z)-3-(1-(4-amino-2-fluorobut-2-en-1-yl)-5-(1,1-difluoroethyl)-2-methyl-1H-pyrrolo[3,2-b]pyridin-3-yl)-N,N-dimethylbenzenesulfonamide Dihydrochloride], for which the pIC50 against Bovine LOX is less than 6.52; at Human LOXL2, more than 6.52; in test [2] it was less than 5.52; at Recombinant human MAO-B, less than 5.52.

Broadly, the pIC50 is the IC50 on a negative log10 scale, so that one unit is a factor of ten.
